Reference: paper PMC3743159 (Chemmedchem, 2013)

Target: T1, STS (Homo sapiens, UniProt P08842)
T1 sequence (P08842 22-583): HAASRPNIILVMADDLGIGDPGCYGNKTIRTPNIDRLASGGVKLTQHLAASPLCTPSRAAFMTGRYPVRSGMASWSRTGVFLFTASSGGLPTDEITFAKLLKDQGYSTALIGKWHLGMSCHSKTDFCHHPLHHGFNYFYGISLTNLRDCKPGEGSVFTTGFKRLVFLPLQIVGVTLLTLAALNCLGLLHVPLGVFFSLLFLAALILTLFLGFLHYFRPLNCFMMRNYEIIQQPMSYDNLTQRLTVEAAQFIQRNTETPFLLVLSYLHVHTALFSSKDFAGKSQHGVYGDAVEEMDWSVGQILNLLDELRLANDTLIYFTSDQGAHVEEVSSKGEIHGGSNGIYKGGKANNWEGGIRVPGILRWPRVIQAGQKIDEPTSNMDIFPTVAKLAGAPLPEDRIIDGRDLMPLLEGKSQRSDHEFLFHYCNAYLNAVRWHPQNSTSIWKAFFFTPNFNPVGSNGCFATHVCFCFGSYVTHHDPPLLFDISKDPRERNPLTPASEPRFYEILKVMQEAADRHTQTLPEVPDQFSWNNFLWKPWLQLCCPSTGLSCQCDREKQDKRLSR
Experiment: In vitro inhibition of STS
Assay type: cell-based
Conditions: STS IC50, JEG-3 cell preparation; sulfamates

Row | SMILES | IC50
1 | N#Cc1ccc(N(Cc2ccc(OS(N)(=O)=O)cc2F)n2cnnc2)cc1 [Compound 11, 4-{[(4-Cyanophenyl)(4H-1,2,4-triazol-4-yl)amino]methyl}-3-fluorophenyl sulfamate] | 21 ± 3.5 nM
2 | N#Cc1ccc(N(Cc2c(F)cc(OS(N)(=O)=O)cc2F)n2cnnc2)cc1 [Compound 12, 4-{[(4-Cyanophenyl)(4H-1,2,4-triazol-4-yl)amino]methyl}-3,5-difluorophenyl sulfamate] | 39 ± 1 nM
3 | N#Cc1ccc(N(Cc2ccc(OS(N)(=O)=O)c(F)c2F)n2cnnc2)cc1 [Compound 13, 4-{[(4-Cyanophenyl)(4H-1,2,4-triazol-4-yl)amino]methyl}-2,3-difluorophenyl sulfamate] | 48 ± 2 nM
4 | N#Cc1ccc(N(Cc2ccc(OS(N)(=O)=O)c(C(F)F)c2)n2cnnc2)cc1 [Compound 15, 4-{[(4-Cyanophenyl)(4H-1,2,4-triazol-4-yl)amino]methyl}-2-(difluoromethyl)phenyl sulfamate] | 60 ± 2.4 nM
5 | N#Cc1ccc(N(Cc2ccc(OS(N)(=O)=O)cc2Cl)n2cnnc2)cc1 [Compound 17, 3-Chloro-4-{[(4-cyanophenyl)(4H-1,2,4-triazol-4-yl)amino]methyl}phenyl sulfamate] | 40 ± 5 nM
6 | N#Cc1ccc(N(Cc2c(Cl)cc(OS(N)(=O)=O)cc2Cl)n2cnnc2)cc1 [Compound 18, 3,5-Dichloro-4-{[(4-cyanophenyl)(4H-1,2,4-triazol-4-yl)amino]methyl}phenyl sulfamate] | 44 ± 6 nM
7 | N#Cc1ccc(N(Cc2ccc(OS(N)(=O)=O)cc2Br)n2cnnc2)cc1 [Compound 19, 3-Bromo-4-{[(4-cyanophenyl)(4H-1,2,4-triazol-4-yl)amino]methyl}phenyl sulfamate] | 29 ± 2 nM
8 | NS(=O)(=O)Oc1ccc(CN(c2ccccc2)n2cnnc2)cc1 [Compound 20, 4-{[Phenyl(4H-1,2,4-triazol-4-yl)amino]methyl}phenyl sulfamate] | 1560 ± 116 nM
9 | NS(=O)(=O)Oc1ccc(CN(c2cc(F)cc(F)c2)n2cnnc2)cc1 [Compound 21, 4-{[(3,5-Difluorophenyl)(4H-1,2,4-triazol-4-yl)amino]methyl}phenyl sulfamate] | 45 ± 5 nM
10 | NS(=O)(=O)Oc1ccc(CN(c2ccc3c(c2)OC(F)(F)O3)n2cnnc2)cc1 [Compound 22, 4-{[(2,2-Difluorobenzo[d][1,3]dioxol-5-yl)(4H-1,2,4-triazol-4-yl)amino]methyl}phenyl sulfamate] | 52 ± 6.6 nM

Tested on: STS
Experiment: not given
Conditions: read-out: STS IC50; placental microsome preparation; cited from earlier work

Row | SMILES | IC50
11 | C[C@]12CC[C@@H]3c4cc(C(F)F)c(OS(N)(=O)=O)cc4CC[C@H]3[C@@H]1CCC2=O [2-difluoromethyloestrone 3-O-sulfamate] | 0.1 nM

Tested on: not given
Experiment: not given
Conditions: not given

Row | SMILES | melting point
12 | Oc1ccc(CN(c2ccc3c(c2)OC(F)(F)O3)n2cnnc2)cc1 [Compound 22 e, 4-{[(2,2-Difluorobenzo[1,3]dioxol-5-yl)-[1,2,4]triazol-4-ylamino]methyl}phenol] | 182 to 185 °C
